We go through six molecules from patent US9902714B2, “Quinoxaline derivatives useful as FGFR kinase modulators” (ASTEX THERAPEUTICS LTD, priority 2014, dated 2018).

One test concerns the target FGFR4 (Homo sapiens (Human), UniProt P22455). In words: Enzyme binding assay (KINOMEscan) FGFR4.
Another test deals with VEGFR2 (Homo sapiens (Human), UniProt P35968). In words: Enzyme binding assay (KINOMEscan) VEGFR2.

As usually defined, the Kd is the equilibrium constant for the complex coming apart. A low value points to higher affinity.

Each structure is given as a SMILES string.

Sequence of VEGFR2 (P35968 20-1356): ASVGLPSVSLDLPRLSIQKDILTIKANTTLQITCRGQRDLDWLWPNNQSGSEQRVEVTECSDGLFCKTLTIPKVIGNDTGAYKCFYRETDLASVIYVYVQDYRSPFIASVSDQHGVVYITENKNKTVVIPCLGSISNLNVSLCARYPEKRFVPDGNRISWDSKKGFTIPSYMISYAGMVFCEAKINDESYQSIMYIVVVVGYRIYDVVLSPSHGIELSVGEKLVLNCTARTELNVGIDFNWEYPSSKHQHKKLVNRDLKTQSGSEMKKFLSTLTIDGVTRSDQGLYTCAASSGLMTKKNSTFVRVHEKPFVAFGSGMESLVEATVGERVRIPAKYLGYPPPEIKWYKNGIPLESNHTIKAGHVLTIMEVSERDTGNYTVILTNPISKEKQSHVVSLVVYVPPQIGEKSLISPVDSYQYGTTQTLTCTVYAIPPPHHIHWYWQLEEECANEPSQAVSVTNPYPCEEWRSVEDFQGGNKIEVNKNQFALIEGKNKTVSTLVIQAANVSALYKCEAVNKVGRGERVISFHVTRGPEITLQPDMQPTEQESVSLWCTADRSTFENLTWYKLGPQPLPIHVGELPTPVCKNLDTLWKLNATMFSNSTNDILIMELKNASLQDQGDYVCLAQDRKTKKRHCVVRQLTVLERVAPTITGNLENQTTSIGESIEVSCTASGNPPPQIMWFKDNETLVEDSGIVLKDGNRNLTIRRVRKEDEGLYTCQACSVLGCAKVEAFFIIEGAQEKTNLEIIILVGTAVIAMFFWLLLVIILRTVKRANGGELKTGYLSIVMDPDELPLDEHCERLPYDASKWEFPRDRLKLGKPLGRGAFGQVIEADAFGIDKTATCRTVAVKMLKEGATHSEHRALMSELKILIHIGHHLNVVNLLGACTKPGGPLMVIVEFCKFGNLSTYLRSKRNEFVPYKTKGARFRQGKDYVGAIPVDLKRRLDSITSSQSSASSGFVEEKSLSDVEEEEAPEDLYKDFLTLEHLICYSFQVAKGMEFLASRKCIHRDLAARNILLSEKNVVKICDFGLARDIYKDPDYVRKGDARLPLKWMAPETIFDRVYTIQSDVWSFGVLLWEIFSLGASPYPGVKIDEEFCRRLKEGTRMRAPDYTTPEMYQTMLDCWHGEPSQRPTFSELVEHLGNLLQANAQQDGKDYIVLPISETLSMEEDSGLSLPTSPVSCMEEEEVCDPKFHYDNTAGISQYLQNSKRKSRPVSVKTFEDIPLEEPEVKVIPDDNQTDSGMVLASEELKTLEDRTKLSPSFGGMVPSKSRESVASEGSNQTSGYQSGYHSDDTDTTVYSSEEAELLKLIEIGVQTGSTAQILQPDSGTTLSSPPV
Sequence of FGFR4 (P22455 22-802): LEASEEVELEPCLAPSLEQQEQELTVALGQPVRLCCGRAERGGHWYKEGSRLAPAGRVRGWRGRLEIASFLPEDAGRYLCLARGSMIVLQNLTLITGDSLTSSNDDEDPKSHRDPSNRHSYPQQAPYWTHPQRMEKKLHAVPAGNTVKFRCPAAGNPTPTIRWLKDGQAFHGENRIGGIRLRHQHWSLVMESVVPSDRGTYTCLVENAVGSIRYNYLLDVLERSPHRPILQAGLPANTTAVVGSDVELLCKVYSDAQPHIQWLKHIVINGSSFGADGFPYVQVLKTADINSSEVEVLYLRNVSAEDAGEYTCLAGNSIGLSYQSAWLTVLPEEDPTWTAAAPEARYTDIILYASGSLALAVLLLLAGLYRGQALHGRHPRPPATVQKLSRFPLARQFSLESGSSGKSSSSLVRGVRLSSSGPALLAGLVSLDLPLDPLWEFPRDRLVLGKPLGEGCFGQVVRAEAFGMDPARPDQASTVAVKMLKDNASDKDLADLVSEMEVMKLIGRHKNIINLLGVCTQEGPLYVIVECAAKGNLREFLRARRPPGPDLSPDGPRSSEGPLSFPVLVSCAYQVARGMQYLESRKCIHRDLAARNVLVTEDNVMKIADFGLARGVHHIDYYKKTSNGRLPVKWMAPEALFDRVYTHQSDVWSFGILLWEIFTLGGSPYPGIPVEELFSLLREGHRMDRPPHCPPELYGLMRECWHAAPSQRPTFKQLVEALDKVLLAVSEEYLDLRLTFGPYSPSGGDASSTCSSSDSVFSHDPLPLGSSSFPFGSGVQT

Take `COc1cc(OC)c2c(c1)N(c1ccc3ncc(-c4cn[nH]c4)nc3c1)CCN(C(C)C)C2` [Compound 2]: the dissociation constant (Kd) on FGFR4 amounted to 68 nM; on VEGFR2 it was 741 nM.

With `COc1cc(O)c2c(c1)N(c1ccc3ncc(-c4cnn(C)c4)nc3c1)CCN(C(C)C)C2` [Compound 3], the Kd on FGFR4 is 1900 nM; at VEGFR2 it was > 3000 nM.

With `COc1cc(O)cc2c1CN(C(C)C)CCN2c1ccc2ncc(-c3cnn(C)c3)nc2c1` [Compound 4], the Kd at FGFR4 and at VEGFR2 was > 3000 nM in each case.

For `CCn1cc(-c2cnc3ccc(N4CCN(C)Cc5c(OC)cc(OC)cc54)cc3n2)cn1` [Compound 6], the Kd at FGFR4 and at VEGFR2 was > 3000 nM each time.

For the molecule `CCn1cc(-c2cnc3ccc(N4CCN(C(C)C)Cc5c(OC)cc(OC)cc54)cc3n2)cn1` [Compound 7], the results for the Kd on FGFR4 and on VEGFR2 were 230 nM and 1700 nM, respectively.

`COc1cc(OC)c2c(c1)N(c1ccc3ncc(-c4cnn(C)c4)nc3c1)CCCN(C(C)C)C2` [Compound 9]: the Kd amounted to 355 nM at FGFR4 and 922 nM on VEGFR2.
